According to patent publication US20240124439A1, “Pyrido[2,3-D]Imidazole Derivatives and Their Use As Inhibitors of ITK for the Treatment of Skin Disease” (Pfizer Inc., priority 2020, published 2024):

Columns and labels:
[1] = molecular target: IL-2-Inducible T-Cell Kinase (ITK) (Homo sapiens (Human), UniProt Q08881); assay: ITK enzyme assay (IL-2-inducible T-cell kinase activity); type: biochemical; details: geometric mean of count n
Outline: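 Full-length N-Flag/C-His human ITK, pre-incubated 30 min at RT with compound. Reaction in HEPES pH 7.5 buffer with MgCl2, glutathione, gelatin and Brij-35, started with BTK peptide substrate, 60 min at RT. EDTA stop, PT66/APC TR-FRET detection overnight; IC50 fitted by four-parameter logistic.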

[2] = test system: activated CD4+ human T-cells (IL-2); assay: IL-2 inhibition in supernatants from activated CD4+ human T-cells (cisbio HTRF); type: cell-based; details: CD3/CD28-activated CD4+ human T cells, ImmunoCult stimulation 20 to 24 hrs, geometric mean of count n
Outline: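 Primary human CD4+ T cells activated with CD3/CD28 for 3 days and expanded to 7-9 days total, plated at 30,000 cells/well. Cells preincubated 15 min with compound, then stimulated with ImmunoCult (1:50 final) for 20-24 h at 37° C. Supernatant IL-2 measured by HTRF (665/615 nm); IC50 from four-parameter logistic fit.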

[3] = molecular target: Tropomyosin Receptor Kinase A (TRKA), NTRK1 enzyme (Homo sapiens (Human), UniProt P04629); assay: TRKA (NTRK1) ThermoFisher Z'-LYTE enzyme assay; type: biochemical; details: test compound 1 uM, ATP 1 mM; arithmetic mean of count n
Tropomyosin Receptor Kinase A (TRKA), NTRK1 enzyme, sequence (P04629 33-796): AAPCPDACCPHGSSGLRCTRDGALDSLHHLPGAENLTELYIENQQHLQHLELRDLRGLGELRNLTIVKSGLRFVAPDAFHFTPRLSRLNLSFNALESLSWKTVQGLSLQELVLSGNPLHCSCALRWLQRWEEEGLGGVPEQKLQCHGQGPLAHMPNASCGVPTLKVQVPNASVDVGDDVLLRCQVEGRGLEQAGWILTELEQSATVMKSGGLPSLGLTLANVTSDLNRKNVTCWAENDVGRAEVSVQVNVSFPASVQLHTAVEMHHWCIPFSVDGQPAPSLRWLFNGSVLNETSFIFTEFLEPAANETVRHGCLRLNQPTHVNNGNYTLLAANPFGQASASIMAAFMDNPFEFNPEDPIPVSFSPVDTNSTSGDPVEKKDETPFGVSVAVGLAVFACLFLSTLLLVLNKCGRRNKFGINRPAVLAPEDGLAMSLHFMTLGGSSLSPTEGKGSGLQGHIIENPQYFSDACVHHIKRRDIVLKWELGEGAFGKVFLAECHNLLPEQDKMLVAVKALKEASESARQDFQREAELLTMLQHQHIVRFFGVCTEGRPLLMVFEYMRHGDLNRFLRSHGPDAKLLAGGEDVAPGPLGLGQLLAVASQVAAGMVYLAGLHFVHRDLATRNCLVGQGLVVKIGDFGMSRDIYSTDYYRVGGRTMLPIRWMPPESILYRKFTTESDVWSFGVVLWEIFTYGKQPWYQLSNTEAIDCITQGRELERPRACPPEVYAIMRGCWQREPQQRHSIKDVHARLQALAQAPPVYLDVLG
Method: TRKA, also known as neurotrophic tyrosine kinase receptor type 1 (NTKR1) activity was determined by measuring the effect of a test compound on the activity against the NTRK1 enzyme using the ThermoFisher Z′-LYTE Assay fluorescence-based coupled enzyme format (www.thermofisher.com/selectscreen). Test compounds were screened at a fixed concentration of 1 uM and the % inhibition was determined compared to controls at a fixed ATP concentration of 1 mM. The resulting effect value for the tested compound was compared to the assay controls to determine the % inhibition (%).

IL-2-Inducible T-Cell Kinase (ITK), sequence (Q08881 whole entry): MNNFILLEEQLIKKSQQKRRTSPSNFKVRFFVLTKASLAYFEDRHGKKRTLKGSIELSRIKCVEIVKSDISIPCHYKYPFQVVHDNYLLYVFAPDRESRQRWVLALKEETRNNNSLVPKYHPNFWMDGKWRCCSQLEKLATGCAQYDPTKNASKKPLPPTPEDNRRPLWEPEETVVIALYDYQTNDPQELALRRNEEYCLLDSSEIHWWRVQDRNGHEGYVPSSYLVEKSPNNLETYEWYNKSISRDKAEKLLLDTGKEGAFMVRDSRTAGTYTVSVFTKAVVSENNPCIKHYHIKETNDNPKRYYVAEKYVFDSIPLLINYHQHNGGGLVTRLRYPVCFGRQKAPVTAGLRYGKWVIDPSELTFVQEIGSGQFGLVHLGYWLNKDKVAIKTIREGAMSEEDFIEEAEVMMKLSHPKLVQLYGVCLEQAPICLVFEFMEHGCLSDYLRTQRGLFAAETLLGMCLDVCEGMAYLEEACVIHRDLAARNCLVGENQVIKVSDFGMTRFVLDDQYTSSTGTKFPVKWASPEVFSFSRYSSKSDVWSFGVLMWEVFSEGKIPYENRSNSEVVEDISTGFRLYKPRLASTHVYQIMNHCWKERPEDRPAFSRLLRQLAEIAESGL

SMILES | IC50 [1] | IC50 ([2]; T-cell) | inhibition at 1 µM [3] | IC50 [2] | TRKA % inhibition [3]
CN(C(=O)C(F)(F)C1CCOCC1)c1cnc2[nH]c(-c3n[nH]c4c3C[C@@H]3C[C@]3(C)C4)nc2c1 [Example 2, 2,2-Difluoro-N-methyl-N-(2-((4aS,5aR)-5a-methyl-1,4,4a,5,5a,6-hexahydrocyclopropa[f]indazol-3-yl)-3H-imidazo[4,5-b]pyridin-6-yl)-2-(tetrahydro-2H-pyran-4-yl)acetamide] | 14 nM | 92 nM | 108% |  | 
C[C@@H](C(=O)N(C)c1cnc2[nH]c(-c3n[nH]c4c3C[C@H]3C(F)(F)[C@@]3(C)C4)nc2c1)N1CCOCC1 [Example 24, (S)-N-(2-((4aR,5aS)-5,5-Difluoro-5a-methyl-1,4,4a,5,5a,6-hexahydrocyclopropa[f]indazol-3-yl)-3H-imidazo[4,5-b]pyridin-6-yl)-N-methyl-2-morpholinopropanamide] | 3 nM | 34 nM | 95% |  | 
C[C@@H](C(=O)N(C)c1cc2[nH]c(-c3n[nH]c4c3C[C@@H]3C[C@]3(C)C4)nc2nc1F)N1CCOCC1 [Example 17, (S)-N-(5-Fluoro-2-((4aS,5aR)-5a-methyl-1,4,4a,5,5a,6-hexahydrocyclopropa[f]indazol-3-yl)-1H-imidazo[4,5-b]pyridin-6-yl)-N-methyl-2-morpholinopropanamide] | 41 nM | 307 nM | 96% |  | 
CCN(C(=O)[C@@H](C)N1CCOCC1)c1cnc2[nH]c(-c3n[nH]c4c3CCC(C)(C)C4)nc2c1 [Example 22, (R)-N-(2-(6,6-Dimethyl-4,5,6,7-tetrahydro-1H-indazol-3-yl)-3H-imidazo[4,5-b]pyridin-6-yl)-N-ethyl-2-morpholinopropanamide] | 85 nM | 471 nM | 94% |  | 
C[C@H](C(=O)N(C)c1cnc2[nH]c(-c3n[nH]c4c3C[C@@H]3C[C@]3(C)C4)nc2c1)C1CCOCC1 [Example 10, (S)-N-Methyl-N-(2-((4aS,5aR)-5a-methyl-1,4,4a,5,5a,6-hexahydrocyclopropa[f]indazol-3-yl)-3H-imidazo[4,5-b]pyridin-6-yl)-2-(tetrahydro-2H-pyran-4-yl)propanamide] | 91 nM | 338 nM | 98% |  | 
C[C@@H](C(=O)N(C)c1cnc2[nH]c(-c3n[nH]c4c3C[C@H]3C[C@@]3(C)C4)nc2c1)N1CCOCC1 [Example 29, (2S)-N-Methyl-N-(2-(5a-methyl-1,4,4a,5,5a,6-hexahydrocyclopropa[f]indazol-3-yl)-3H-imidazo[4,5-b]pyridin-6-yl)-2-morpholinopropanamide] | 2850 nM | 2530 nM | 69% |  | 
CCN(C(=O)[C@H](C)C1CCOCC1)c1cnc2[nH]c(-c3n[nH]c4c3C[C@@H]3C[C@]3(C)C4)nc2c1 [Example 19, (R)-N-Ethyl-N-(2-((4aS,5aR)-5a-methyl-1,4,4a,5,5a,6-hexahydrocyclopropa[f]indazol-3-yl)-3H-imidazo[4,5-b]pyridin-6-yl)-2-(tetrahydro-2H-pyran-4-yl)propenamide] | 17 nM |  |  | 153 nM | 98%
C[C@@H](C(=O)N(C)c1cnc2[nH]c(-c3n[nH]c4c3C[C@@H]3C(F)(F)[C@]3(C)C4)nc2c1)N1CCOCC1 [Example 23, (S)-N-(2-((4aS,5aR)-5,5-Difluoro-5a-methyl-1,4,4a,5,5a,6-hexahydrocyclopropa[f]indazol-3-yl)-3H-imidazo[4,5-b]pyridin-6-yl)-N-methyl-2-morpholinopropanamide] | 1330 nM | 1850 nM | 54% |  | 

The remaining lines, values ahead:

IC50 [1] | IC50 ([2]; T-cell) | inhibition at 1 µM [3] | IC50 [2] | TRKA % inhibition [3] | SMILES
44 nM | 189 nM | 95% |  |  | CN(C(=O)CC1CCCCC1)c1cnc2nc(-c3n[nH]c4c3C[C@@H]3C[C@]3(C)C4)[nH]c2c1 [Example 47, 2-Cyclohexyl-N-methyl-N-(2-((4aS,5aR)-5a-methyl-1,4,4a,5,5a,6-hexahydrocyclopropa[f]indazol-3-yl)-1H-imidazo[4,5-b]pyridin-6-yl)acetamide]
100 nM | 466 nM | 95% |  |  | CN(C(=O)C(C)(C)C)c1cnc2nc(-c3n[nH]c4c3C[C@@H]3C[C@]3(C)C4)[nH]c2c1 [Example 86, N-Methyl-N-(2-((4aS,5aR)-5a-methyl-1,4,4a,5,5a,6-hexahydrocyclopropa[f]indazol-3-yl)-1H-imidazo[4,5-b]pyridin-6-yl)pivalamide]
31 nM | 288 nM | 96% |  |  | CN(c1cnc2nc(-c3n[nH]c4c3C[C@@H]3C[C@]3(C)C4)[nH]c2c1)C(=O)[C@H]1C[C@H](C)C1 [Example 84, (1r,3S)-N,3-Dimethyl-N-(2-((4aS,5aR)-5a-methyl-1,4,4a,5,5a,6-hexahydrocyclopropa[f]indazol-3-yl)-1H-imidazo[4,5-b]pyridin-6-yl)cyclobutane-1-carboxamide]
17 nM | 167 nM | 94% |  |  | C[C@@H](C(=O)N(C)c1cnc2[nH]c(-c3n[nH]c4c3CCC(C)(C)C4)nc2c1)C1CCOCC1 [Example 32, (R)-N-(2-(6,6-Dimethyl-4,5,6,7-tetrahydro-1H-indazol-3-yl)-3H-imidazo[4,5-b]pyridin-6-yl)-N-methyl-2-(tetrahydro-2H-pyran-4-yl)propenamide]
36 nM | 974 nM | 106% |  |  | CN(C(=O)CN1CCCOC1=O)c1cnc2nc(-c3n[nH]c4c3C[C@@H]3C[C@]3(C)C4)[nH]c2c1 [Example 57, N-Methyl-N-(2-((4aS,5aR)-5a-methyl-1,4,4a,5,5a,6-hexahydrocyclopropa[f]indazol-3-yl)-1H-imidazo[4,5-b]pyridin-6-yl)-2-(2-oxo-1,3-oxazinan-3-yl)acetamide]
23 nM | 88 nM | 95% |  |  | CN(C(=O)C1(F)CCOCC1)c1cnc2nc(-c3n[nH]c4c3C[C@@H]3C[C@]3(C)C4)[nH]c2c1 [Example 61, 4-Fluoro-N-methyl-N-(2-((4aS,5aR)-5a-methyl-1,4,4a,5,5a,6-hexahydrocyclopropa[f]indazol-3-yl)-1H-imidazo[4,5-b]pyridin-6-yl)tetrahydro-2H-pyran-4-carboxamide]
47 nM | 172 nM | 95% |  |  | COc1nc2[nH]c(-c3n[nH]c4c3C[C@@H]3C[C@]3(C)C4)nc2cc1N(C)C(=O)[C@H](C)N1CCOCC1 [Example 36, (S)-N-(5-Methoxy-2-((4aS,5aR)-5a-methyl-1,4,4a,5,5a,6-hexahydrocyclopropa[f]indazol-3-yl)-3H-imidazo[4,5-b]pyridin-6-yl)-N-methyl-2-morpholinopropanamide]
64 nM | 266 nM | 93% |  |  | CN(C(=O)C1(F)CCC1)c1cnc2[nH]c(-c3n[nH]c4c3CCC(C)(C)C4)nc2c1 [Example 95, N-(2-(6,6-Dimethyl-4,5,6,7-tetrahydro-1H-indazol-3-yl)-3H-imidazo[4,5-b]pyridin-6-yl)-1-fluoro-N-methylcyclobutane-1-carboxamide]
25 nM | 415 nM | 95% |  |  | C[C@@H](C(=O)N(CCO)c1cnc2[nH]c(-c3n[nH]c4c3C[C@@H]3C[C@]3(C)C4)nc2c1)C1CCOCC1 [Example 31, (R)-N-(2-Hydroxyethyl)-N-(2-((4aS,5aR)-5a-methyl-1,4,4a,5,5a,6-hexahydrocyclopropa[f]indazol-3-yl)-3H-imidazo[4,5-b]pyridin-6-yl)-2-(tetrahydro-2H-pyran-4-yl)propenamide]
102 nM | 380 nM | 108% |  |  | CN(C(=O)CN1CCOCC1)c1cnc2nc(-c3n[nH]c4c3C[C@@H]3C[C@]3(C)C4)[nH]c2c1 [Example 58, N-Methyl-N-(2-((4aS,5aR)-5a-methyl-1,4,4a,5,5a,6-hexahydrocyclopropa[f]indazol-3-yl)-1H-imidazo[4,5-b]pyridin-6-yl)-2-morpholinoacetamide]
